From patent publication US8017557B2, “Benzodioxole derivatives as modulators of proteolytic activity in plants” (Endura S.p.A., priority 2002, dated 2011)
pIC50, pKi: −log10 of the molar value. Read-outs that look alike come from different tables or passages of the source.

Assays:
[1] = test system: Bt toxin (Cry1Ac)
Protocol: An immunoenzymatic assay was used to determine the Bt levels at different stages of plant development. • a) Measured Bt toxin values; ordinate: Bt expressed as ppm; abscissa: days of plant culture and where different, plant tissue.
The assay was carried out on samples collected at different plant development stages, which were: 4, 35, 60, 85 days after sowing.
The ELISA Cry1Ab/Cry1Ac Plate Kit was obtained from Envirologix (Portland, Maine—USA). The assay was performed according to the Envirologix protocol with the following modifications: • 1. The cotton freeze-dried powder got from leaf or cotyledon tissues was used instead of the fresh and whole leaf tissue. • 2. The Bt toxin extraction from the cotton freeze-dried powder was done with a sample/buffer ratio of 1:25 (w/v). • 3. The extraction was made leaving the sample in the buffer for at least 4 hours at room temperature, instead of using the Envirologix Disposable Tissue Extractor. The extract was then clarified by centrifugation at 5,000×g for 5 min at room temperature.
Cotton seeds of the cv. Sicala V2i were previously rinsed in distilled water and then placed in equal number in suitable plastic boxes containing settled and sterile sand. Seeds were watered with equal volumes of distilled water and the culture boxes were then covered with a plastic film to avoid evaporation during germination, which was carried out in the dark for 4 days at 30° C. […] After 4 days, these sprouts were collected for testing, whereas the other sprouts were moved in suitable pots and located in the greenhouse at 24° C. during the day and 20° C. in the night.
Treatments were given out vaporizing the diluted formulation on the plants taking care to treat both leaves sides.
Two days after each treatment, a sample of the treated plants, and the correspondent controls, were collected and all leaves were frozen in liquid nitrogen and freeze dried. After this process, the material was powdered in a pestle and then stored in a dry box at room temperature.

[2] = target: bromelain (Ananas comosus, UniProt P14518); experiment: biochemical
Sequence of bromelain (P14518 whole entry): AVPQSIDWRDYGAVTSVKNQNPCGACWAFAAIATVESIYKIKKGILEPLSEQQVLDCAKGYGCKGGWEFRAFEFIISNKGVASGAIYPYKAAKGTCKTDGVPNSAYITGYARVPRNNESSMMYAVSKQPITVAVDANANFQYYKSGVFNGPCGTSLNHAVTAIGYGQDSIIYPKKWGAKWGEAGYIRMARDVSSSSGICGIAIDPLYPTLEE
Protocol: Reverse micelles assay of ISO-AOT 50 mM (AOT: twin aerosol (2-ethylhexylsodiumsulfosuccinate in isooctane (ISO)); Wo (H2O/AOT)=28
The assays were carried out in the reverse-micelles assay dispersed in organic solvent, described by Walde et al. in Eur. J. Biochem., 1988, 173:401-409, and already reported in the literature in kinetic studies of the inhibition of trypsin with natural and synthetic inhibitors. […]
The enzyme assay on reverse-micelle has been already described in the literature for the enzyme trypsin and was adapted to different enzymes. […] To this solution was added an appropriate volume of substrate CBZ (dissolved in acetonitrile/H2O, 80:20 (v/v) at a concentration of 15 mM) and following further agitation (the solution returned to being transparent), the change in absorbance was measured (Dabs) at 340 nm with a Cary 219 spectrophotometer.
The experimental data obtained are represented graphically in the form of Dixon-plot (described for example in: “Quantitative Problems in Biochemistry”, E A. Dawes, 5th ed. 1972 Baltimore, The Williams and Wilkins Company), in the FIGS. 1, 2 and 3.

[3] = test system: carboxypeptidase activity in cotton sprouts; settings: for absorbance at 280 nm, Exp. n° 1, PBO Treated Cotton Sprouts / absorbance at 280 nm, Exp. n° 2, PBO Treated Cotton Sprouts / absorbance at 280 nm, Mean, PBO Treated Cotton Sprouts / Carboxypeptidase Activity (U), PBO Treated Cotton Sprouts: pH 6.5; for absorbance at 280 nm, Exp. n° 1, PBO Treated Cotton Sprouts / absorbance at 280 nm, Exp. n° 2, PBO Treated Cotton Sprouts / absorbance at 280 nm, Mean, PBO Treated Cotton Sprouts / % difference of carboxypeptidase activity, treated vs untreated / Δ U (carboxypeptidase activity, untreated vs PBO treated) / Carboxypeptidase Activity (U), PBO Treated Cotton Sprouts: 4th day of germination, PBO 1% w/v
Protocol: The extent of proteolytic activity in cotton sprouts was measured at 30′, 60′, 90′ and […] after suspension of the acetonic powder in aqueous buffer at pH 6.5 by determining the absorbance at 280 nm in a quartz cuvette, after protein precipitation with TCA and removal by centrifugation.
Each series of analysis was performed in duplicate. The comparison between the values of carboxypeptidase activity of treated and untreated samples was done using the average value of each series of analysis.
The basic idea was to “freeze” the physiologic protein hydrolysis enzymatic activity and to re-establish the process simply solubilizing the proteolytic enzymatic system in suitable buffers, which were 0.1 M phosphate pH 6.5 and 0.1 M tris-HCl pH 7.7, for evaluating both the carboxypeptidase and the endopeptidase activities according to the method described by Hile et al. 1972; Funkhouser et al. 1980.
Cotton seeds (cv. Carmela) were obtained from “Semillas Battle”, Barcelona (E).
The seeds were previously rinsed in tap water and then imbibed with aeration in distilled water over night (Funkhouser, E. A. et al., Z. Pflanzenphysiol., 1980, 100, 319-324).
The plastic boxes containing seeds were covered by a plastic film and placed in a germinator in the dark for 4 days at 30° C. as described in Hile, J. N. and Dure, L. S. J. Biol. Chem., 1972, 247: 5034-5040.
The cotton sprouts of 4 days were collected and frozen in liquid nitrogen and freeze dried (Hile et al. 1972). After this process, the material was crushed in a pestle and freed from fibrous material and settled up to obtain a pretty homogeneous meal of about 0.5 mesh.
The meals were defatted using n-hexane (1:10 w/v) at room temperature and then treated with acetone at −20° C. to remove pigments and polyphenolic compounds, in this case mainly gossypol. The powders obtained were stored in a dry box at room temperature.
The acetonic powder (30 mg) was suspended in buffer (4 ml) and incubated at 37° C. for 30, 60, 90, 120 minutes. The proteolysis was stopped adding 1 ml of 12% trichloroacetic acid. In this case, the buffer used was 0.1 M phosphate pH 6.5 (Hile et al. 1972). The control was a suspension of the same sample prepared in the same way but, in this case, it was immediately deactivated, adding 1 ml of trichloroacetic acid. The trials with treated and untreated samples were carried out at the same time.
Proteins were precipitated with trichloroacetic acid and then removed by filtration, before with Whatman paper n. 4 and then by micro-filtration (Orange Scientific Braine I'Alleud, Belgium (Ø0.2 μm)). Finally, the hydrolyzed protein samples were analyzed as clear solutions by determining the absorbance at 280 nm in a quartz cuvette.
Each series of analysis was performed twice. The comparison between the values of carboxypeptidase activity of treated and untreated samples was done using the average value of each series of analysis.

[4] = Growth stage 4 days (plantlets)
[5] = Growth stage 35 days (cotyledons)
[6] = Time 0 (immediately deactivated)

Compound: CCCCOCCOCCOCc1cc2c(cc1CCC)OCO2 [PBO, 5-[[2-(2-Butoxyethoxy)ethoxy]methyl]-6-propyl-1,3-benzodioxole]
- Bt content in PBO-treated samples vs untreated ([1]; 35, 60, 85 days after planting): significant lower Bt content
- Bt content in PBO-treated samples vs untreated ([1]; 4 days): no difference
- %: treated − control (Cry1Ac) [1, 4]: −4.823%
- Cry1Ac ppm, cv V2i PBO treated [1, 4]: 44.60 ppm
- Δ: treated − control (Cry1Ac) [1, 4]: −2.26 ppm
- %: treated − control (Cry1Ac) [1, 5]: 9.149%
- Cry1Ac ppm, cv V2i PBO treated [1, 5]: 66.57 ppm
- Δ: treated − control (Cry1Ac) [1, 5]: 5.58 ppm
- %: treated − control (Cry1Ac) ([1]; Growth stage 35 days (leaves)): 38.356%
- Cry1Ac ppm, cv V2i PBO treated ([1]; Growth stage 35 days (leaves)): 45.45 ppm
- Δ: treated − control (Cry1Ac) ([1]; Growth stage 35 days (leaves)): 12.6 ppm
- %: treated − control (Cry1Ac) ([1]; Growth stage 60 days (leaves)): 16.629%
- Cry1Ac ppm, cv V2i PBO treated ([1]; Growth stage 60 days (leaves)): 31.07 ppm
- Δ: treated − control (Cry1Ac) ([1]; Growth stage 60 days (leaves)): 4.43 ppm
- %: treated − control (Cry1Ac) ([1]; Growth stage 85 days (leaves)): 13.236%
- Cry1Ac ppm, cv V2i PBO treated ([1]; Growth stage 85 days (leaves)): 31.91 ppm
- Δ: treated − control (Cry1Ac) ([1]; Growth stage 85 days (leaves)): 3.73 ppm
- amount of transgenic toxin after PBO treatment ([1]; cotton transgenic for the Bt CryI protein): higher than in transgenic untreated plants
- pIC50 [2]: 3.40
- pKi [2]: 4.00
- proteolytic activity related to carboxypeptidase in treated samples ([3]; FIG. 4, treated vs untreated cotton sprouts): lower than in the untreated ones
- absorbance at 280 nm, Exp. n° 1, PBO Treated Cotton Sprouts [3, 6]: 0.632
- absorbance at 280 nm, Exp. n° 2, PBO Treated Cotton Sprouts [3, 6]: 0.729
- absorbance at 280 nm, Mean, PBO Treated Cotton Sprouts [3, 6]: 0.68
- % difference of carboxypeptidase activity, treated vs untreated ([3]; Time 30′): 55.7%
- Δ U (carboxypeptidase activity, untreated vs PBO treated) ([3]; Time 30′): 0.083 U
- Carboxypeptidase Activity (U), PBO Treated Cotton Sprouts ([3]; Time 30′): 0.066 U
- absorbance at 280 nm, Exp. n° 1, PBO Treated Cotton Sprouts ([3]; Time 30′): 0.730
- absorbance at 280 nm, Exp. n° 2, PBO Treated Cotton Sprouts ([3]; Time 30′): 0.763
- absorbance at 280 nm, Mean, PBO Treated Cotton Sprouts ([3]; Time 30′): 0.746
- % difference of carboxypeptidase activity, treated vs untreated ([3]; Time 60′): 39.3%
- Δ U (carboxypeptidase activity, untreated vs PBO treated) ([3]; Time 60′): 0.081 U
- Carboxypeptidase Activity (U), PBO Treated Cotton Sprouts ([3]; Time 60′): 0.125 U
- absorbance at 280 nm, Exp. n° 1, PBO Treated Cotton Sprouts ([3]; Time 60′): 0.752
- absorbance at 280 nm, Exp. n° 2, PBO Treated Cotton Sprouts ([3]; Time 60′): 0.858
- absorbance at 280 nm, Mean, PBO Treated Cotton Sprouts ([3]; Time 60′): 0.805
- % difference of carboxypeptidase activity, treated vs untreated ([3]; Time 90′): 43.5%
- Δ U (carboxypeptidase activity, untreated vs PBO treated) ([3]; Time 90′): 0.087 U
- Carboxypeptidase Activity (U), PBO Treated Cotton Sprouts ([3]; Time 90′): 0.113 U
- absorbance at 280 nm, Exp. n° 1, PBO Treated Cotton Sprouts ([3]; Time 90′): 0.880
- absorbance at 280 nm, Exp. n° 2, PBO Treated Cotton Sprouts ([3]; Time 90′): 0.838
- absorbance at 280 nm, Mean, PBO Treated Cotton Sprouts ([3]; Time 90′): 0.859
- % difference of carboxypeptidase activity, treated vs untreated ([3]; Time 120′): 61.0%
- Δ U (carboxypeptidase activity, untreated vs PBO treated) ([3]; Time 120′): 0.158 U
- Carboxypeptidase Activity (U), PBO Treated Cotton Sprouts ([3]; Time 120′): 0.101 U
- absorbance at 280 nm, Exp. n° 1, PBO Treated Cotton Sprouts ([3]; Time 120′): 0.775
- absorbance at 280 nm, Exp. n° 2, PBO Treated Cotton Sprouts ([3]; Time 120′): 0.787
- absorbance at 280 nm, Mean, PBO Treated Cotton Sprouts ([3]; Time 120′): 0.781
